From patent US9994558B2, “Multicyclic compounds and methods of using same” (Karyopharm Therapeutics Inc., priority 2013, dated 2018)

Columns and labels:
Format in all cases: cell-based
[1] = system: 3T3 cells; assay: MTT cell proliferation assay, 3T3 cells; conditions: Mus musculus, NIH3T3; 3T3 fibroblast cells; incubation approximately 64-72 hours
Method: (§1) The MTT cell proliferation assay was used to study the cytotoxic properties of the compounds. The assay was performed according to the method described by Roche Molecular Biochemicals, with minor modifications. The assay is based on the cleavage of the tetrazolium salt, MTT, in the presence of an electron-coupling reagent. The water-insoluble formazan salt produced must be solubilized in an additional step. Cells grown in a 96-well tissue culture plate were incubated with the MTT solution for approximately 4 hours. After this incubation period, a water-insoluble formazan dye formed. After solubilization, the formazan dye was quantitated using a scanning multi-well spectrophotometer (ELISA reader). […] The cells were seeded at 5,000-10,000 cells in each well of 96-well plate in 100 μL of fresh culture medium and were allowed to attach overnight. The stock solutions of the compounds were diluted in 100 μL cell culture medium to obtain eight concentrations of each test compound, ranging from 1 nM to 30 μM. […] All optical densities were measured at 490 nm using a Vmax Kinetic Microplate Reader (Molecular Devices). In most cases, the assay was performed in duplicate and the results were presented as a mean percent inhibition to the negative control±SE. The following formula was used to calculate the percent of inhibition. Inhibition (%)=(1−(ODo/OD))×100.
(§2) The compounds were tested against MS751, Z138 and 3T3 cells. The MS751 cell line is derived from a metastasis to lymph node of human cervix from a patient diagnosed with squameous cell carcinoma of the cervix. The […] cell line is a mature B-cell acute lymphoblastic leukemia cell line derived from a patient with chronic lymphocytic leukemia. 3T3 cells are standard fibroblast cells; they were originally isolated from Swiss mouse embryo tissue.

[2] = system: HEP 3B cells; assay: MTT cell proliferation assay, HEP 3B cells; conditions: Hep3B; human hepatocellular carcinoma cells
Method: as §1, with “(%)=(1−(ODo/OD))×100. […]” for “(%)=(1−(ODo/OD))×100.”

[3] = system: SNU-182 cell line; assay: MTT cell proliferation assay, SNU-182 cells; conditions: human hepatoma cell line
Method: as §1, with “(%)=(1−(ODo/OD))×100. […]” for “(%)=(1−(ODo/OD))×100.”

[4] = system: NHDF cells; assay: MTT cell proliferation assay, NHDF cells; conditions: normal human dermal fibroblast cells
Method: as §1, with “(%)=(1−(ODo/OD))×100. […]” for “(%)=(1−(ODo/OD))×100.”

[5] = system: UCH-2 cell line; assay: MTT cell proliferation assay, UCH-2 cells; conditions: UCH2; chordoma cell line
Method: as §1, with “(%)=(1−(ODo/OD))×100. […]” for “(%)=(1−(ODo/OD))×100.”

[6] = system: Hep G2 cells; assay: MTT cell proliferation assay, Hep G2 cells; conditions: HepG2; human hepatocellular carcinoma cells
Method: as §1, with “(%)=(1−(ODo/OD))×100. […]” for “(%)=(1−(ODo/OD))×100.”

[7] = system: Z138 cells; assay: MTT cell proliferation assay, Z138 cells; conditions: Homo sapiens, Z-138, incubation approximately 64-72 hours
Method: as §1, §2

[8] = system: L3.6pl cell line; assay: MTT cell proliferation assay, L3.6pl cells; conditions: Homo sapiens, pancreatic cancer cell line
Method: as §1, with “(%)=(1−(ODo/OD))×100. […]” for “(%)=(1−(ODo/OD))×100.”

[9] = system: MS751 cells; assay: MTT cell proliferation assay, MS751 cells; conditions: Homo sapiens, incubation approximately 64-72 hours
Method: as §1, §2

| SMILES | IC50 [1] [nM] | IC50 [2] [nM] | IC50 [3] [nM] | IC50 [4] [nM] | IC50 [5] [nM] | IC50 [6] [nM] | IC50 [7] [nM] | IC50 [8] [nM] | IC50 [9] [nM] |
| --- | --- | --- | --- | --- | --- | --- | --- | --- | --- |
| Nc1ccc(/C=C/C(=O)NCCOc2ccc(-c3ccc(C(=O)N4CC(F)(F)C4)cc3)cc2Cl)cn1 [Compound 318, (E)-3-(6-aminopyridin-3-yl)-N-(2-(3-chloro-4′-(3,3-difluoroazetidine-1-carbonyl)biphenyl-4-yloxy)ethyl)acrylamide] | 100 to 5000 | < 100 | < 100 | < 100 | > 30000 | < 100 | < 100 | < 100 | < 100 |
| CC(C)(CNC(=O)/C=C/c1ccc(N)nc1)COc1ccc(-c2ccc(C(=O)N3CCOCC3)cc2)cc1Cl [Compound 350, (E)-3-(6-Aminopyridin-3-yl)-N-(3-((3-chloro-4′-(morpholine-4-carbonyl)-[1,1′-biphenyl]-4-yl)oxy)-2,2-dimethylpropyl)acrylamide] | 100 to 5000 | – | – | – | – | – | < 100 | – | 100 to 5000 |
| Nc1ccc(/C=C/C(=O)NCCOc2ccc(-c3nnc(C(=O)N4CCOCC4)o3)cc2Cl)cn1 [Compound 351, (E)-3-(6-aminopyridin-3-yl)-N-(2-(2-chloro-4-(5-(morpholine-4-carbonyl)-1,3,4-oxadiazol-2-yl)phenoxy)ethyl)acrylamide] | > 10000 | – | – | – | – | – | 100 to 5000 | – | 100 to 5000 |
| CC(CCOc1cc(-c2ccc(C(=O)N3CCC(F)(F)CC3)cn2)cc(C(F)(F)F)c1)NC(=O)/C=C/c1ccc(N)nc1 (stereo not drawn) [Compound 352, (E)-3-(6-aminopyridin-3-yl)-N-(4-(3-(5-(4,4-difluoropiperidine-1-carbonyl)pyridin-2-yl)-5-(trifluoromethyl)phenoxy)butan-2-yl)acrylamide] | > 10000 | – | – | – | – | – | 100 to 5000 | – | 100 to 5000 |
| Nc1ccc(CNC(=O)/C=C/COc2ccc(-c3ccc(C(=O)N4CCC(F)(F)CC4)cn3)cc2C(F)(F)F)cn1 [Compound 353, (E)-N-((6-aminopyridin-3-yl)methyl)-4-(4-(5-(4,4-difluoropiperidine-1-carbonyl)pyridin-2-yl)-2-(trifluoromethyl)phenoxy)but-2-enamide] | > 10000 | – | – | – | – | – | 100 to 5000 | – | 100 to 5000 |
| Nc1ccc(CNC(=O)/C=C\COc2ccc(-c3ccc(C(=O)N4CCC(F)(F)CC4)cn3)cc2C(F)(F)F)cn1 [Compound 354, (Z)—N-((6-aminopyridin-3-yl)methyl)-4-(4-(5-(4,4-difluoropiperidine-1-carbonyl)pyridin-2-yl)-2-(trifluoromethyl)phenoxy)but-2-enamide] | > 10000 | – | – | – | – | – | > 10000 | – | > 10000 |
| Nc1ccc(/C=C/C(=O)NCCOc2ccc(-c3ccc(C(=O)N4CCC(F)(F)CC4)cn3)cc2C(F)(F)F)cn1 [Compound 355, (E)-3-(6-aminopyridin-3-yl)-N-(2-(4-(5-(4,4-difluoropiperidine-1-carbonyl)pyridin-2-yl)-2-(trifluoromethyl)phenoxy)ethyl)acrylamide] | 100 to 5000 | – | – | – | – | – | < 100 | – | < 100 |
